# Laboratory results taken from publication PMC4706877, “Antibacterial and Cytotoxic Activity of Compounds Isolated from Flourensia oolepis” (Evidence-based Complementary and Alternative Medicine : eCAM, 2015).
# Where two headings read alike, the source gives them in different places.
# Legend:
# [1] = system: Staphylococcus aureus subsp. aureus (ATCC 6538); assay: Agar dilution MIC / MBC; format: cell-based; settings: S. aureus; for MBC: value in parentheses
# Method: (§1) This isolate was identified by conventional biochemical assays and by the commercial system API20E (bioMérieux SA, Mercy L'Etoile, France). Antimicrobial resistances were determined by disk diffusion susceptibility testing (Kirby-Bauer Method) according to CLSI [15]. Bacterial suspensions were prepared on sterile saline from each organism grown overnight. Turbidity was spectrophotometrically adjusted to the McFarland 0.5 standard. Dilutions were carried out with sterile saline to give an adjusted concentration of 1.5 × 10^7 colony-forming units/mL.
# (§2) Three independent experiments were carried out. […] For reading, visual observations were carried out.
# [2] = system: Enterococcus faecalis (ATCC 29212); assay: Agar dilution MIC / MBC; format: cell-based; settings: ATCC29212, E. faecalis
# Method: as §1, §2
# [3] = system: Pseudomonas aeruginosa (ATCC 27853); assay: Agar dilution MIC / MBC; format: cell-based; settings: ATCC27853, P. aeruginosa
# Method: as §1, §2
# [4] = system: tetracycline, erythromycin, and polymyxin-resistant Proteus mirabilis (Pr2921); assay: Agar dilution MIC / MBC; format: cell-based; settings: P. mirabilis
# Method: as §1, §2
# [5] = system: Escherichia coli (ATCC 25922); assay: Agar dilution MIC / MBC; format: cell-based; settings: ATCC25922, E. coli
# Method: as §1, §2
# CCRF-CEM cells = assay: Cell cycle distribution by flow cytometry (PI); format: cell-based, human; settings: 2 × IC50, 72 h
# Method: (§3) Control cells were devoid of 1 and negative controls contained 1% ethanol. After treatment, cells were harvested and washed twice with ice cold PBS. Then, cells were fixed with 70% cold ethanol and kept at 4°C for 24 h. Before analysis, the cells were washed twice with PBS and stained with a solution containing propidium iodide (PI, 50 μg/mL, Sigma-Aldrich CO, USA) and RNase A (100 μg/mL, Sigma-Aldrich CO, USA) in PBS (pH 7.4) for 30 min in the dark. DNA content was evaluated by flow cytometry. The relative distribution of at least 20,000 cells was analyzed using FlowJo software version 7.6.2 (Tree Star, Inc. OR, USA).
# [6] = system: HEK293T non-tumor derived cell line; assay: MTT cell proliferation assay; format: cell-based; settings: Homo sapiens, HEK-293T
# From the text: (§4) CCRF-CEM acute lymphoblastic leukemia (ALL) and K562 chronic myeloid leukemia (CML) cells and their MDR P-glycoprotein overexpressing variants, CEM/ADR5000 and Lucena 1, respectively, were a generous gift from Dr. T. Efferth (Institute of Pharmacy and Biochemistry, Johannes Gutenberg University, Mainz, Germany) and Dr. V. Rumjanek (Instituto de Bioquímica Médica Leopoldo de Meis, Universidade Federal do Rio de Janeiro, Rio de Janeiro, Brazil), respectively. The HEK293T non-tumor derived cell line and human isolated mononuclear cells (PBMC) were also tested. […]
# (§5) To investigate the cytotoxic potential of the isolated compounds, the MTT colorimetric assay was performed. […] The compounds were evaluated at a final maximum concentration of 100 μM. […] Absorbance was measured with an iMark micro-plate reader (Bio-Rad, USA) at 595 nm. […] The percentage of cytotoxic activity of the assayed compounds was determined by the following formula: cytotoxicity (%) = [1 − (optical density of treated cells − optical density DMSO)/(optical density of ethanol control cells − optical density DMSO)] × 100.
# K562 cells = assay: Cell cycle distribution by flow cytometry (PI); format: cell-based, human; settings: 2 × IC50, 72 h
# Method: as §3, with “Control cells were devoid of 1 and negative controls contained 1% ethanol.” left out
# [7] = system: sensitive and resistant leukemic cells; assay: MTT assay, summary over leukemic cell lines; format: cell-based; settings: Homo sapiens, read-out: IC50 values, range
# From the text: as §4, §5
# [8] = system: peripheral blood mononuclear cells (PBMC); assay: MTT cell proliferation assay; format: cell-based; settings: Homo sapiens
# From the text: as §4, §5
smiles,measurement,setting,value
"O=C(/C=C/c1ccccc1)c1ccc(O)cc1O [Compound 1, 2′,4′-dihydroxychalcone]",MBC,[1],31 (31) μg/mL
same,MIC,"[1]; Staphylococcus aureus, ATCC6538, agar dilution, 24 h",31 µg/mL
same,MBC,"[1]; Staphylococcus aureus, ATCC6538, read-out: MBC",31 µg/mL
same,MIC,"[2]; agar dilution, 24 h",62 µg/mL
same,MBC,[2]; value in parentheses,125 µg/mL
same,MIC,"[3]; agar dilution, 24 h",250 µg/mL
same,MBC,[3]; value in parentheses,> 500 µg/mL
same,MIC,"[4]; agar dilution, 24 h",62 µg/mL
same,MBC,[4]; value in parentheses,125 µg/mL
same,MIC,"[5]; agar dilution, 24 h",250 µg/mL
same,MBC,[5]; value in parentheses,500 µg/mL
same,hypodiploid sub-G1 population,CCRF-CEM cells; ethanol control 1%,10%
same,cells in the G2/M phase,CCRF-CEM cells; ethanol control 7%,34%
same,IC50,[6],67 µM
same,cells in the G2/M phase,K562 cells,19%
same,hypodiploid sub-G1 population,K562 cells; ethanol control 1%,25%
same,IC50,[7],6.6 to 30 µM
same,IC50,[8],82.8 µM
